Results reported in ChEMBL document CHEMBL1201862, “PubChem BioAssay data set” (2004).
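In this assay, cells in 96-well plates receive the compound at five concentrations for 48 hours. Endpoints are linearly interpolated between the surrounding concentrations. At the GI50, growth is halved.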 Active and inactive are the calls of the source. Rule as the data show it: active = GI50 up to about 1.1 µM and inactive = higher.

Legend:
Test in all cases: growth of human tumour cells (NCI), 48 h
OVCAR-3 = test system: OVCAR-3
NCI-H23 = test system: NCI-H23
SF-539 = test system: SF-539
CCRF-CEM = test system: CCRF-CEM
UACC-62 = test system: UACC-62
PC-3 = test system: PC-3
SR = test system: SR
RPMI-8226 = test system: RPMI-8226
T47D = test system: T47D
ACHN = test system: ACHN
COLO 205 = test system: COLO 205
MOLT-4 = test system: MOLT-4
UO-31 = test system: UO-31
OVCAR-5 = test system: OVCAR-5
HOP-62 = test system: HOP-62
NCI-H460 = test system: NCI-H460
LOX IMVI = test system: LOX IMVI
U-251 = test system: U-251
NCI-H226 = test system: NCI-H226
MDA-MB-231 = test system: MDA-MB-231

Compound: COc1cc(S(=O)(=O)Nc2ccc(-c3csc(N4C(=O)C(Cl)C4c4ccccc4)n3)cc2)ccc1Cl (centres undefined)
- GI50 (OVCAR-3): > 100 µM (inactive)
- GI50 (NCI-H23): 25.6 µM (inactive)
- GI50 (SF-539): 32.7 µM (inactive)
- GI50 (CCRF-CEM): 3.37 µM (inactive)
- GI50 (UACC-62): 22.9 µM (inactive)
- GI50 (PC-3): > 100 µM (inactive)
- GI50 (SR): 3.06 µM (inactive)
- GI50 (RPMI-8226): 31.4 µM (inactive)
- GI50 (T47D): 28.4 µM (inactive)
- GI50 (ACHN): 60 µM (inactive)
- GI50 (COLO 205): 37.9 µM (inactive)
- GI50 (MOLT-4): 27 µM (inactive)
- GI50 (UO-31): 25 µM (inactive)
- GI50 (OVCAR-5): 47.4 µM (inactive)
- GI50 (HOP-62): 69.2 µM (inactive)
- GI50 (NCI-H460): < 0.01 µM (active)
- GI50 (LOX IMVI): 2.14 µM (inactive)

Compound: COC(=O)C1CCC2(CC1)NC(=O)NC2=O (centres undefined)
- GI50 (U-251): > 100 µM (inactive)
- GI50 (OVCAR-3): > 100 µM (inactive)
- GI50 (NCI-H226): > 100 µM (inactive)
- GI50 (NCI-H23): > 100 µM (inactive)
- GI50 (SF-539): > 100 µM (inactive)
- GI50 (CCRF-CEM): > 100 µM (inactive)
- GI50 (UACC-62): > 100 µM (inactive)
- GI50 (SR): > 100 µM (inactive)
- GI50 (RPMI-8226): > 100 µM (inactive)
- GI50 (ACHN): > 100 µM (inactive)
- GI50 (COLO 205): > 100 µM (inactive)
- GI50 (MOLT-4): > 100 µM (inactive)
- GI50 (UO-31): > 100 µM (inactive)
- GI50 (OVCAR-5): > 100 µM (inactive)
- GI50 (HOP-62): > 100 µM (inactive)
- GI50 (NCI-H460): > 100 µM (inactive)
- GI50 (LOX IMVI): > 100 µM (inactive)

Compound: N#Cc1cnsc1
- GI50 (U-251): > 100 µM (inactive)
- GI50 (OVCAR-3): > 100 µM (inactive)
- GI50 (NCI-H226): > 100 µM (inactive)
- GI50 (NCI-H23): > 100 µM (inactive)
- GI50 (SF-539): > 100 µM (inactive)
- GI50 (CCRF-CEM): > 100 µM (inactive)
- GI50 (UACC-62): > 100 µM (inactive)
- GI50 (SR): > 100 µM (inactive)
- GI50 (RPMI-8226): > 100 µM (inactive)
- GI50 (ACHN): > 100 µM (inactive)
- GI50 (COLO 205): > 100 µM (inactive)
- GI50 (MOLT-4): > 100 µM (inactive)
- GI50 (UO-31): > 100 µM (inactive)
- GI50 (OVCAR-5): > 100 µM (inactive)
- GI50 (HOP-62): > 100 µM (inactive)
- GI50 (NCI-H460): > 100 µM (inactive)
- GI50 (LOX IMVI): > 100 µM (inactive)

Compound: CS(=O)(=O)c1ccc2nc(-c3ccc(O)cc3)sc2c1
- GI50 (U-251): 19 µM (inactive)
- GI50 (OVCAR-3): 16.6 µM (inactive)
- GI50 (NCI-H226): 18.5 µM (inactive)
- GI50 (NCI-H23): 19 µM (inactive)
- GI50 (SF-539): 11 µM (inactive)
- GI50 (CCRF-CEM): 25.2 µM (inactive)
- GI50 (UACC-62): 17.9 µM (inactive)
- GI50 (PC-3): 17.5 µM (inactive)
- GI50 (SR): 10.1 µM (inactive)
- GI50 (RPMI-8226): 15.7 µM (inactive)
- GI50 (ACHN): 17.9 µM (inactive)
- GI50 (COLO 205): 22.2 µM (inactive)
- GI50 (MDA-MB-231): 20.6 µM (inactive)
- GI50 (MOLT-4): 35.6 µM (inactive)
- GI50 (UO-31): 14.8 µM (inactive)
- GI50 (OVCAR-5): 17.7 µM (inactive)
- GI50 (NCI-H460): 19.4 µM (inactive)
- GI50 (LOX IMVI): 22.1 µM (inactive)

Compound: CC/C(=C\c1ccc(OC)cc1)c1ccc(OC)cc1
- GI50 (U-251): > 100 µM (inactive)
- GI50 (OVCAR-3): > 100 µM (inactive)
- GI50 (NCI-H226): > 100 µM (inactive)
- GI50 (NCI-H23): 86.3 µM (inactive)
- GI50 (SF-539): > 100 µM (inactive)
- GI50 (CCRF-CEM): > 100 µM (inactive)
- GI50 (UACC-62): > 100 µM (inactive)
- GI50 (PC-3): > 100 µM (inactive)
- GI50 (RPMI-8226): 86.3 µM (inactive)
- GI50 (ACHN): > 100 µM (inactive)
- GI50 (COLO 205): > 100 µM (inactive)
- GI50 (MDA-MB-231): > 100 µM (inactive)
- GI50 (MOLT-4): 52.5 µM (inactive)
- GI50 (UO-31): > 100 µM (inactive)
- GI50 (OVCAR-5): 66.7 µM (inactive)
- GI50 (HOP-62): > 100 µM (inactive)
- GI50 (NCI-H460): > 100 µM (inactive)
- GI50 (LOX IMVI): 70.6 µM (inactive)

Compound: O=C(O/N=C1\CCCC\C1=C/c1ccccc1)c1ccc([N+](=O)[O-])cc1
- GI50 (U-251): 86.3 µM (inactive)
- GI50 (OVCAR-3): 42.1 µM (inactive)
- GI50 (NCI-H226): > 100 µM (inactive)
- GI50 (NCI-H23): 87.5 µM (inactive)
- GI50 (SF-539): 41.3 µM (inactive)
- GI50 (CCRF-CEM): > 100 µM (inactive)
- GI50 (UACC-62): > 100 µM (inactive)
- GI50 (SR): > 100 µM (inactive)
- GI50 (RPMI-8226): > 100 µM (inactive)
- GI50 (ACHN): 64.4 µM (inactive)
- GI50 (COLO 205): > 100 µM (inactive)
- GI50 (MOLT-4): > 100 µM (inactive)
- GI50 (UO-31): 98.4 µM (inactive)
- GI50 (OVCAR-5): > 100 µM (inactive)
- GI50 (HOP-62): > 100 µM (inactive)
- GI50 (NCI-H460): > 100 µM (inactive)
- GI50 (LOX IMVI): > 100 µM (inactive)

Compound: CN(C)/N=N/c1ccc2[nH]c(=O)[nH]c2c1
- GI50 (U-251): > 100 µM (inactive)
- GI50 (OVCAR-3): > 100 µM (inactive)
- GI50 (NCI-H226): > 100 µM (inactive)
- GI50 (NCI-H23): > 100 µM (inactive)
- GI50 (SF-539): > 100 µM (inactive)
- GI50 (CCRF-CEM): 62.2 µM (inactive)
- GI50 (UACC-62): > 100 µM (inactive)
- GI50 (PC-3): > 100 µM (inactive)
- GI50 (RPMI-8226): > 100 µM (inactive)
- GI50 (T47D): > 100 µM (inactive)
- GI50 (ACHN): > 100 µM (inactive)
- GI50 (COLO 205): > 100 µM (inactive)
- GI50 (MDA-MB-231): > 100 µM (inactive)
- GI50 (UO-31): > 100 µM (inactive)
- GI50 (OVCAR-5): > 100 µM (inactive)
- GI50 (HOP-62): > 100 µM (inactive)
- GI50 (NCI-H460): > 100 µM (inactive)
- GI50 (LOX IMVI): > 100 µM (inactive)

Compound: N#CNC(=N)NC(=O)/C=C/C=C/c1ccc(Cl)cc1
- GI50 (U-251): > 100 µM (inactive)
- GI50 (OVCAR-3): > 100 µM (inactive)
- GI50 (NCI-H226): > 100 µM (inactive)
- GI50 (NCI-H23): > 100 µM (inactive)
- GI50 (SF-539): 21.3 µM (inactive)
- GI50 (CCRF-CEM): > 100 µM (inactive)
- GI50 (UACC-62): > 100 µM (inactive)
- GI50 (SR): 72.9 µM (inactive)
- GI50 (RPMI-8226): > 100 µM (inactive)
- GI50 (ACHN): > 100 µM (inactive)
- GI50 (COLO 205): > 100 µM (inactive)
- GI50 (MOLT-4): > 100 µM (inactive)
- GI50 (UO-31): > 100 µM (inactive)
- GI50 (OVCAR-5): > 100 µM (inactive)
- GI50 (HOP-62): > 100 µM (inactive)
- GI50 (NCI-H460): > 100 µM (inactive)
- GI50 (LOX IMVI): > 100 µM (inactive)
